Source: article PMC11241255 (International Journal of Molecular Sciences, 2024)
Several values for one entry are separate records, joined by “and”; a condition that tells them apart may be missing. Identical values can stand only once. Like-named read-outs stand apart in the source and are kept apart here.

What was measured:
SH-SY5Y cells = assay: Mitochondrial membrane potential (ΔΨm) assay (TMRE); type: cell-based, Human; conditions: 12 h pre-treatment, 200 μM H2O2 2 h
Description: (§1) Human neuroblastoma SH-SY5Y cells (ATCC CRL-2266, Manassas, VA, USA) were maintained in Dulbecco’s modified Eagle’s medium (DMEM, Gibco) supplemented with 10% fetal bovine serum (FBS), 1% kanamycin, and 1% penicillin (Thermo Fisher Scientific, Waltham, MA, USA) at 37 °C with 5% CO2, and a 95% humidified atmosphere in the incubator. The experiments were executed at 80–90% cell confluency.
The mitochondrial membrane potential was measured using the tetramethylrhodamine, methyl ester (TMRE) staining method. The cells (1 × 10^4 cells/well) were seeded in a 96-well sterile plate; after which, they were pre-treated with the extract for 12 h. The extracts and phytocompounds were removed, followed by a 2 h treatment with H2O2 (200 μM). A 1 μM amount of TMRE was added to the cells and incubated for 1 h at 37 °C. The fluorescence was assessed (Ex 549 nm, Ems 575 nm) using a microplate reader (Synergy-H1 BioTek, Agilent, USA). The ΔΨm was calculated as a percentage of the untreated control cells (100%) in triplicate measurements.

Aβ1–42 [1] = target: T1, Aβ1–42 (Homo sapiens, UniProt P05067); assay: Anti-Aβ1–42 oligomerization, multimeric detection system (MDS); type: biochemical; conditions: for Aβ oligomerization reduction (relative amount of Aβ oligomers): vs negative control (Buffer + Aβ)
T1 construct: Aβ1–42 for MDS (GenicBio Inc., Shanghai, China); purchased GenicBio Inc
T1 sequence (P05067 672-713): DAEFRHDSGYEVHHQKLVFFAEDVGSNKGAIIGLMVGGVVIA
Description: The anti-Aβ1–42 oligomerization and fibrilization activity of the extracts/bioactives were measured by Multiple Detection System (MDS) and ThT assay, respectively. Briefly, the extracts and phytocompounds were incubated with Aβ1–42 at RT for different time points (0 h, 2 h, and 4 h). The samples were incubated on an anti-β-amyloid pre-coated plate for 1 h at RT. An HRP-conjugated W0–2 monoclonal antibody was added, and the plate was kept at RT for 30 min. Later, TMB was added, and the plate was incubated for 15 min at RT. The absorbance was read at 450 nm using a microplate reader (Victor3, PerkinElmer, Shelton, CT, USA)

SH-SY5Y cells lysate = assay: Malondialdehyde (MDA) in cell lysate (TBA:TCA); type: cell-based, Human; conditions: 24 h pre-treatment, 6 h H2O2 100 μM
Description: as §1
(§2) The cells (5 × 10^4 cells/well) were seeded in a 6-well sterile plate and incubated for 18–24 h. After stabilization, cells were pre-treated with the extracts and phytocompounds for 24 h before 6 h incubation with H2O2 (100 μM). The culture media was removed, and the cells were washed with cold PBS (1X). The cells were placed on ice and incubated with pre-chilled RIPA buffer for 10 min. Transfer the lysate in microfuge tubes and centrifuge (Labogene 1730R, BMS, Paju-si, Republic of Korea) for 10 min at 20,000× g, 4 °C. The supernatant was collected and stored at −80 °C.
MDA levels were measured using TBA: TCA reagent as described previously. In the reaction, MDA reacts with two molecules of thiobarbituric acid (TBA) to give a pink pigment that absorbs at 532 nm. The standard curve of MDA (1–100 μM) was used to calculate lipid peroxidation in the lysate.

[2] = target: T2, Acetylcholinesterase (Electrophorus electricus, Type VI-S) (Electrophorus electricus, UniProt O42275); assay: biochemical; conditions: for Type of Inhibition of AChE: Lineweaver–Burk plot, 100 and 200 μg/mL; for Vmax of AChE in presence of inhibitor: no inhibitor 2.975; for IC50: read-out: AChE IC50 (converted)
T2 construct: purchased Sigma-Aldrich
T2 sequence (O42275 24-633): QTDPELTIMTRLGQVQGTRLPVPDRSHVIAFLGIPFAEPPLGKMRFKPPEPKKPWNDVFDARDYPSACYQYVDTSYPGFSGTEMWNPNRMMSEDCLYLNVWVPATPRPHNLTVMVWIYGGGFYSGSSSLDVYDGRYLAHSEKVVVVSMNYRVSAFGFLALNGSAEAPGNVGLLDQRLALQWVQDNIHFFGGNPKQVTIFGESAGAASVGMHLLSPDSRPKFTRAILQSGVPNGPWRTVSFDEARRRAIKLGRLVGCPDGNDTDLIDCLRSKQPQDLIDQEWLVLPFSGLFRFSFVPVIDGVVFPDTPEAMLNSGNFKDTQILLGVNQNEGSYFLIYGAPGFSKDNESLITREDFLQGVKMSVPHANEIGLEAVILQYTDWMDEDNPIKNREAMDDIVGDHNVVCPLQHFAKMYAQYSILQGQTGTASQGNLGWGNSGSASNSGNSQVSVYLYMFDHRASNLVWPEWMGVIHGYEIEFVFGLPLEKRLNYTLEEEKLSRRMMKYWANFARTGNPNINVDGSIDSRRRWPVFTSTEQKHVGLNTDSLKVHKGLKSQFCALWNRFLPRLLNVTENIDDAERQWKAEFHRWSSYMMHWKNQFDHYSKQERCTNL
Description: The AChE activity was examined by slight modifications [23] in Ellman’s method [76]. The extracts and phytocompounds were incubated for 15 min with AChE and 10 mM ATCC at 37 °C. The reaction was stopped by DTNB (15 mM), and the absorbance was measured at 412 nm (Multi-mode plate reader, Synergy-H1 BioTek, Agilent, USA). […] The percent inhibition was calculated as:Percent Inhibition (I%) = [(Ao − Ac) − (Bi − Bc)]/(Ao − Ac) × 100 where Ao is the absorbance without inhibitor; Ac is the negative control without inhibitor; Bi is the absorbance with inhibitor; and Bc is the negative control with inhibitor. The IC50 values were calculated using GraphPad Prism 10. Lineweaver–Burk plot was used to prepare the inhibition curves (with and without extract/phytocompound) using GraphPad Prism 10. The kinetic parameters were calculated from a non-linear fit (Michaelis–Menten equation) in GraphPad Prism 10.
Statistical analysis was established by a one-way ANOVA followed by Dunnett’s post hoc test. Data are registered as the mean ± SEM of three sets of experiments. […] The IC50 values were determined using non-linear regression. The Vmax and Km were calculated from a Michaelis–Menten plot drawn using a non-linear plot (GraphPad Prism 10). Lineweaver–Burk plots were drawn using linear regression analysis (GraphPad Prism 10). The Ki values were calculated from the formula IC50 = Ki (1 + [S]/Km).

[3] = test system: H2O2-induced neuroblastoma SH-SY5Y cells; assay: Neuroprotection assay against H2O2-induced oxidative stress (WST-8); type: cell-based, Human
Description: as §1
The neuroprotective effect of extracts and phytocompounds on H2O2-induced oxidative stress in SH-SY5Y by a previously described method. The cells (1 × 10^4 cells/well) were seeded in a 96-well sterile plate. After stabilization, the cells were pre-treated with the extracts and phytocompounds for 24 h. The extracts and phytocompounds were removed and treated with H2O2 (100 μM) for 6 h. A solvent control, H2O2 alone, and extract alone treatments were also included. After incubation, the % cell viability was measured using WST-8 reagent in triplicate experiments.

[4] = test system: H2O2-induced ROS production in SH-SY5Y cells; assay: Intracellular ROS measurement (H2DCFDA); type: cell-based, Human; conditions: 12 h pre-treatment, H2O2 100 µM 2 h, H2O2 alone 156.96 ± 5.07%
Description: as §1
The cells (1 × 10^4 cells/well) were seeded in a 96-well sterile plate, after which they were pre-treated with the extract for 12 h. […] The fluorescence intensity (Ex 495 nm, Ems 520 nm) was measured by a microplate reader (Synergy-H1 BioTek, Agilent, USA). The ROS was calculated as a percentage of the untreated control cells (100%) in triplicate measurements.

[5] = cited from earlier work
[6] = test system: SH-SY5Y neuroblastoma cell line; assay: Cell viability / cytotoxicity assay (WST-8); type: cell-based, Human; conditions: 24 h treatment; 1, 10, 30 µg/mL
Description: as §1
The cells were seeded (1 × 10^4 cells/well) in 96-well sterile plates and pre-treated with various extract concentrations (1, 10, 30 µg/mL) for 24 h. The extracts and phytocompounds were removed and incubated for 2 h with 10% WST-8 reagent (Roche, Grenzach-Wyhlen, Germany) as described previously. The absorbance was determined at 450 nm in a multi-plate reader (Synergy-H1 BioTek, Agilent, USA). The percent cytotoxicity was calculated as:Cytotoxicity % = (Ac − At)/(Ac) × 100 where Ac = absorbance of the control cells, At = absorbance of the treated cells.
The plot of percent cytotoxicity versus sample concentration was used to calculate the extract concentration that killed 50% of the cells (IC50).

[7] = Ferric reducing antioxidant potential (FRAP) assay; conditions: 1 mg/mL
Description: FRAP assay was used to assess the […] of the extracts and phytocompounds with slight modification in a previously reported method. For the assay, the extract (1 mg/mL) was incubated with 200 μL of FRAP reagent, and the reduction of ferric tripyridyltriazine was monitored at 593 nm (Multimode reader, Synergy-H1 BioTek, Agilent, USA). Ascorbic acid (2 μg/mL) was used as a positive control. FRAP values of the extracts and phytocompounds were calculated from the standard curve of FeSO4 (15–250 μM) and expressed as μM Fe^2+/g.

Aβ1–42 [8] = target: T1, Aβ1–42; assay: Anti-Aβ1–42 fibrilization, ThT assay; type: biochemical; conditions: for Aβ fibrilization inhibition (ThT): samples 500 μg/mL, 37 °C 24 h
Description: The anti-Aβ1–42 fibrilization activity of the extracts/bioactives was monitored using a ThT assay. The samples were incubated in the presence/absence of Aβ1–42 at 37 °C for 24 h. The samples were incubated with 100 μM ThT at 37 °C for 15 min. The fluorescence was monitored at Ex 450 nm/Ems 490 nm (Synergy-H1 BioTek, Agilent, Santa Clara, CA, USA). For the control, phenol red (50 μM) was used. The Aβ1–42 aggregation inhibition was calculated as follows:Percent Inhibition (%) = [(1 − Fi/Fc) × 100] where Fi and Fc are the fluorescence intensity with and without the inhibitors, respectively.

[9] = DPPH radical scavenging assay; conditions: positive control at 10 μg/mL
Description: DPPH radical scavenging capacity of the extracts and phytocompounds at 1 mg/mL was measured with slight modification. The absorbance was monitored at 515 nm (Multimode reader, Synergy-H1 BioTek, Agilent, Santa Clara, CA, USA) using ascorbic acid (0.1–10 μg/mL) as a standard. Radical scavenging activity (RSA) was calculated as:% RSA = (Ab − Ae/Ab) × 100 where Ab = absorbance of the blank and Ae = absorbance of the extract.

SH-SY5Y cell lysate = assay: Glutathione (GSH, GSSG) in cell lysate; type: cell-based, Human; conditions: 10 μg/mL; 24 h pre-treatment, 6 h H2O2 100 μM
Description: as §1, §2
The concentrations of GSH (reduced) and GSSG (oxidized) in the lysate were measured fluorometrically using a previously described and the fluorescence was recorded at 350/420 (Ex/Ems) in a microplate reader (Synergy-H1 BioTek, Agilent, Santa Clara, CA, USA).

AChE = conditions: cited from earlier work
[10] = ABTS radical scavenging assay; conditions: positive control at 10 μg/mL
[11] = mean of three experiments ± SEM

C=CCc1cc(OC)c2c(c1OC)OCO2 [apiole]
MMP (% ΔΨm vs untreated cells) (SH-SY5Y cells; 0.1 µg/mL): 71.53 ± 0.37% | MMP (% ΔΨm vs untreated cells) (SH-SY5Y cells; 1–30 µg/mL): 75 to 77% | Aβ oligomerization reduction (relative amount of Aβ oligomers) (Aβ1–42 [1]; 2 h incubation): statistically significant | Aβ oligomerization reduction (relative amount of Aβ oligomers) (Aβ1–42 [1]; 4 h incubation): statistically significant | MDA level (SH-SY5Y cells lysate; 0.1 µg/mL): 1.94 µM | MDA level (SH-SY5Y cells lysate; 1 and 10 µg/mL): ~ 1.38 µM | Ki ([2]; Ki): 1720 µM | Ki ([2]; Ki (inhibitor constant), AChE): 1720 µM and 1710 µM | Type of Inhibition of AChE [2]: competitive inhibition | Type of Inhibition of AChE ([2]; listed as Apiole): Competitive | Vmax of AChE in presence of inhibitor ([2]; inhibitor 100 μg/mL): 3.551 µmol/min/mg | Vmax of AChE in presence of inhibitor ([2]; inhibitor 200 μg/mL): 3.712 µmol/min/mg | IC50 [2, 11]: 1750 µM | IC50 ([2]; molar equivalent of the μg/mL value): 1740 µM | % cell viability, H2O2-induced SH-SY5Y ([3]; 1–30 µg/mL, 12 h pre-treatment, 1 h H2O2 100 µM): ~ 75% | ROS level (% of untreated cells) ([4]; 10 µg/mL): 113.63 ± 6.25% | ROS level (% of untreated cells) ([4]; 30 µg/mL): 102.92 ± 9.11% | BBB permeability [5]: lacks significant BBB permeability | Cytotoxicity (cell viability) in SH-SY5Y [6]: No significant difference | FRAP value [7]: 42.41 ± 3.54 µM Fe^2+/g | Aβ fibrilization inhibition (ThT) (Aβ1–42 [8]): 41.85 ± 1.73%

O=C1O[C@H]([C@@H](O)CO)C(O)=C1O [Ascorbic acid, ascorbic acid]
DPPH percent radical scavenging activity [9]: 85.43 ± 1.02%

C=C(C)[C@H]1CC[C@H](C)C(=O)C1 [DHC, cyclohexanone,2-methyl-5-(1-methylethenyl)-]
MMP (% ΔΨm vs untreated cells) (SH-SY5Y cells; 0.1 µg/mL): 74.94 ± 1.20% | MMP (% ΔΨm vs untreated cells) (SH-SY5Y cells; 1 µg/mL): 79.26 ± 0.56% | MMP (% ΔΨm vs untreated cells) (SH-SY5Y cells; 10 µg/mL): 85.21 ± 0.19% | MMP (% ΔΨm vs untreated cells) (SH-SY5Y cells; 30 µg/mL): 86.91 ± 5.47% | Aβ oligomerization reduction (relative amount of Aβ oligomers) (Aβ1–42 [1]; 2 h incubation): non-significant | percent Aβ oligomerization inhibition (Aβ1–42 [1]; MDS, Figure 3B, mean ± SEM n = 3): 26.62 ± 8.62% | MDA level (SH-SY5Y cells lysate; 0.1 µg/mL): 1.79 µM | MDA level (SH-SY5Y cells lysate; 1 µg/mL): 1.60 µM | MDA level (SH-SY5Y cells lysate; 10 μg/mL): 1.45 µM | GSSG levels (SH-SY5Y cell lysate): substantial reduction | IC50 [2, 11]: > 7870 µM and 7870 µM | IC50 ([2]; stated as bound): > 6570 µM | AChE inhibition (AChE; at 1 mg/mL): 31.1% | cell viability change vs H2O2 control ([3]; all concentrations (0.1–30 µg/mL)): non-significantly increased | ROS level (% of untreated cells) ([4]; 10 µg/mL): 107.37 ± 8.26% | ROS level (% of untreated cells) ([4]; 30 µg/mL): 96.73 ± 9.11% | Cytotoxicity (cell viability) in SH-SY5Y [6]: No significant difference | FRAP value [7]: 45.22 ± 0.72 µM Fe^2+/g | Aβ fibrilization inhibition (ThT) (Aβ1–42 [8]): 26.6% and 33.44 ± 3.43%

O=c1c(O)c(-c2ccc(O)c(O)c2)oc2cc(O)cc(O)c12 [quercetin]
ABTS radical scavenging activity [10]: 97.55 ± 0.05%

COc1ccc2c3c1O[C@H]1C[C@@H](O)C=C[C@@]31CCN(C)C2 [galantamine, reference compound]
AChE IC50 (AChE; previously reported value, no reference given): 4.31 µg/mL

O=S1(=O)OC(c2ccc(O)cc2)(c2ccc(O)cc2)c2ccccc21 [phenol red, reference compound]
inhibition at 50 µM (Aβ1–42 [8]; positive control 50 μM, read-out: Aβ fibrilization inhibition (ThT)): 60.3 ± 4.29%
